# According to patent publication US8242118B2, “Arylsulfonamide derivatives for use as CCR3 antagonists in the treatment of inflammatory and immunological disorders” (Axikin Pharmaceuticals Inc., priority 2001, dated 2012):
# Structures can show the parent of a compound that is named as a salt.
# Molecular target: T1, Human CCR3 (Homo sapiens, UniProt P51677)
# T1 construct: The cloned CCR3 cDNA was constructed with pcDNA3 vector and transfected into a IC562 cell line; expressed in transfected cells
# T1 sequence (P51677 1-355): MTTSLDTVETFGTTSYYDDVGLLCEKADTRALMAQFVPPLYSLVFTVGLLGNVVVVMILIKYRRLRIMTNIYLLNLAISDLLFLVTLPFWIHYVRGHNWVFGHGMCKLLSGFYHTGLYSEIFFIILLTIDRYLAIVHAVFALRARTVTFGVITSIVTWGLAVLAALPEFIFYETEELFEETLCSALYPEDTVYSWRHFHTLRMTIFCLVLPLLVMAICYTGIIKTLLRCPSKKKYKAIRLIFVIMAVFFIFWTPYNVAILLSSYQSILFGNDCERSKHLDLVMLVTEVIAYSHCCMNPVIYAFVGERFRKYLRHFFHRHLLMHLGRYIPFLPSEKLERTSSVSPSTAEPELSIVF
# Test: Calcium mobilization assay, eotaxin-stimulated
# Type: cell-based
# Conditions: human CCR3-transformed K562 cells, 10 nM eotaxin; compounds of about 40 to 90% purity; read-out: Activity grade Ca2+ (IC50 class)
# Procedure: • Human CCR3-transformed K562 cells were used. The cloned CCR3 cDNA was constructed with pcDNA3 vector and transfected into a IC562 cell line. The human CCR3-transformed K562 cells were maintained in RPMI-1640 (Cat.#22400-089, Life Technologies) supplemented with 10% FCS (Cat.#A-1115-L, Hyclone), 55 μM 2-mercaptoethanol (Cat.#21985-023, Life Technologies), 1 mM sodium pyruvate (Cat.#11360-070, Life Technologies), 100 units/ml of penicillin G and 100 μg/ml of streptomycin (Cat.#15140-122, Life Technologies), and 0.4 mg/ml of Geneticin (Cat.#10131-035, Life Technologies)(hereinafter called “culture medium”). Before the receptor binding assay, cells were pretreated with 5 mM sodium butyrate (Cat.#193-01522, Wako)-containing the culture medium (2×10^5 cells/ml) for 20-24 hours to increase the expression of CCR3. (2) Receptor Binding Assay (RBA) • Butyrate-pretreated cells, suspended in binding buffer (25 mM HEPES pH 7.6, 1 mM CaCl2, 5 mM MgCl2, 0.5% BSA, 0.1% NaN3) at a cell density of 2×10^6 cells/ml, were added into 60 μl/well in the 96-well round bottom polypropylene plate (Cat.#3365, Costar). Compounds, diluted with the binding buffer (4-times higher concentration of the final concentration), were added into 30 μl/well in the polypropylene plate. [^125I]-labeled human eotaxin (Cat.#IM290, Amersham Pharmacia Biotech), diluted with the binding buffer at the concentration of 0.4 nM (final concentration; 0.1 nM), was added into 30 μl/well in the polypropylene plate. Total 120 μl/well of binding reaction mixture (60 μl/well of cell suspension, 30 μl/well of compound solution, and 30 μl/well of [^125I]-labeled eotaxin) were incubated in the polypropylene plate for 1 hour at room temperature after the incubation, 100 μl/well of the reaction mixture was transferred to a filtration plate (Cat.#MAFB-N0B, Millipore), and washed with the washing buffer (25 mM HEPES pH 7.6, 1 mM CaCl2, 5 mM MgCl2, 0.5% BSA, 0.1% NaN3, 0.5 M NaCl) twice. The 96-well filtration plate was pretreated with 100 μl/well of 0.5% polyethylenimine (Cat.#P-3143, Sigma) for 2-4 hours at room temperature and washed with the washing buffer twice before use. The non-specific binding was determined by parallel incubation in the presence of 500 nM of non-labeled eotaxin (Cat.#23209, Genzyme Techne). The radioactivities remained on the filter were measured by liquid scintillation counter (TopCount™, Packard) after an addition of 45 μl/well of scintillant (Microscint20, Cat.#6013621, Packard). The inhibition percent at each concentration of compound was calculated, and IC50 values were determined from the inhibition curve. [Determination of IC50 Values of Compounds in Calcium Mobilization Assay] (IC50 Ca2+) (1) Cell • Human CCR3-transformed K562 cells were used. The human CCR3-transformed K562 cells were maintained in RPMI-1640 supplemented with 10% FCS, 55 μM 2-mercaptoethanol (Cat.#21985-023, Life Technologies), 1 mM sodium pyruvate, 100 units/ml of penicillin G and 100 μg/ml of streptomycin and 0.4 mg/ml of Geneticin. Before the calcium mobilization assay, cells were pretreated with 5 mM sodium butyrate-containing the culture medium (2×10^5 cells/ml) for 20-24 hours to increase the expression of CCR3. (2) Calcium Mobilization Assay • Butyrate-pretreated cells were loaded with Fluo-3AM (Cat.#F-1242, Molecular Probes) in loading buffer (Hanks' solution Cat.#05906 Nissui, 20 mM HEPES pH 7.6, 0.1% BSA, 1 mM probenecid Cat.#P-8761 Sigma, 1 μM Fluo-3AM, 0.01% pluronic F-127 Cat.#P-6866 Molecular Probes) at a cell density of 1×10^7 cells/ml. Then, cells were washed with calcium assay buffer (Hanks' solution Cat.#05906 Nissui, 20 mM HEPES pH 7.6, 0.1% BSA, 1 mM Probenecid Cat.#P-8761 Sigma). The cell suspension (3.3×10^6 cells/ml) was added into 60 μl/well in the 96-well clear bottom black plate (Cat.#3904, Costar). Compounds, diluted (5-times concentration of the final concentration) with the calcium assay buffer, were added into 20 μl/well in the plate 10 minutes before assay. […]
row,IC50,Structure (SMILES)
1,1 to 10 µM,Cc1cc(C)cc(Oc2cc(Cl)c(C(N)=O)cc2S(=O)(=O)N2CCNCC2)c1 [Example 15-3]
2,1 to 10 µM,COC(=O)c1cncc(Oc2ccc([N+](=O)[O-])cc2S(=O)(=O)N2CCNCC2)c1 [Example 1-53]
3,< 1 µM,"Cc1cc(C)cc(Oc2ccc(C(N)=O)cc2S(=O)(=O)N2CCNCC2)c1 [Example 15-1, 4-(3,5-dimethylphenoxy)-3-(1-piperazinylsulfonyl)benzamide hydrochloride]"
4,< 1 µM,"Cc1cc(C)cc(Oc2ccc(C(=O)O)cc2S(=O)(=O)N2CCNCC2)c1 [Example 14-1, 4-(3,5-dimethylphenoxy)-3-(1-piperazinylsulfonyl)benzoic acid hydrochloride]"
5,< 1 µM,O=[N+]([O-])c1ccc(Nc2ccc(F)cc2)c(S(=O)(=O)N2CCNCC2)c1 [Example 3-11]
6,< 1 µM,O=[N+]([O-])c1ccc(Oc2cc(Cl)cc(Cl)c2)c(S(=O)(=O)NCC2CCNCC2)c1 [Example 1-96]
7,1 to 10 µM,"N#Cc1ccc([S+]([O-])c2cc(Cl)cc(Cl)c2)c(S(=O)(=O)N2CCNCC2)c1 (stereo not drawn) [Example 19-1, 4-[(3,5-dichlorophenyl)sulfinyl]-3-(1-piperazinylsulfonyl)benzonitrile hydrochloride]"
8,< 1 µM,Cc1cc(C)cc(N(C)c2ccc([N+](=O)[O-])cc2S(=O)(=O)N2CCNCC2)c1 [Example 21-2]
9,< 1 µM,"Cc1cc(C)cc(Oc2ccc(-c3nnnn3CCC#N)cc2S(=O)(=O)N2CCNCC2)c1 [Example 22-3, 3-{5-[4-(3,5-dimethylphenoxy)-3-(1-piperazinylsulfonyl)phenyl]-1H-tetraazol-1-yl}propanenitrile hydrochloride]"
10,< 1 µM,O=[N+]([O-])c1ccc(Oc2cc(Cl)cc(Cl)c2)c(S(=O)(=O)NCCN2CCCCC2)c1 [Example 4-41]
11,1 to 10 µM,O=C(O)c1cc(S(=O)(=O)N2CCNCC2)c(Oc2cc(Cl)cc(Cl)c2)cc1Cl [Example 14-4]
12,< 1 µM,"Cc1cc(C)cc(Oc2ccc(C(=O)NCCC#N)cc2S(=O)(=O)N2CCNCC2)c1 [Example 22-1, N-(2-cyanoethyl)-4-(3,5-dimethylphenoxy)-3-(1-piperazinylsulfonyl)benzamide hydrochloride]"
13,< 1 µM,"Cc1cc(C)cc(Oc2ccc(CO)cc2S(=O)(=O)N2CCNCC2)c1 [Example 16-1, [4-(3,5-dimethylphenoxy)-3-(1-piperazinylsulfonyl)phenyl]methanol hydrochloride]"
14,< 1 µM,"N#Cc1ccc(Oc2cc(Cl)cc(Cl)c2)c(S(=O)(=O)N2CC[C@H](N)C2)c1 [Example 13-1, 1-{5-cyano-2-(3,5-dichlorophenoxy)phenylsulfonyl}-(3S)-aminopyrrolidine hydrochloride]"
15,< 1 µM,O=[N+]([O-])c1ccc(Nc2cccc(Cl)c2)c(S(=O)(=O)N2CCNCC2)c1 [Example 3-7]
16,< 1 µM,COc1ccccc1Nc1ccc([N+](=O)[O-])cc1S(=O)(=O)N1CCNCC1 [Example 3-12]
17,1 to 10 µM,"CN(c1cc(Cl)cc(Cl)c1)c1ccc(C#N)cc1S(=O)(=O)N1CCNCC1 [Example 21-1, 4-[(3,5-dichlorophenyl)(methyl)amino]-3-(1-piperazinylsulfonyl)benzonitrile hydrochloride]"
18,< 1 µM,CC1CCCCN1CCCNS(=O)(=O)c1cc([N+](=O)[O-])ccc1Oc1cc(Cl)cc(Cl)c1 (stereo not drawn) [Example 4-40]

row,IC50,Structure (SMILES)
1,< 1 µM,O=[N+]([O-])c1ccc(Nc2ccccc2F)c(S(=O)(=O)N2CCNCC2)c1 [Example 3-9]
2,< 1 µM,"Cc1cc(C)cc(Oc2ccc(C(=O)NCCC(N)=O)cc2S(=O)(=O)N2CCNCC2)c1 [Example 22-2, N-[4-(3,5-dimethylphenoxy)-3-(1-piperazinylsulfonyl)benzoyl]-beta-alanineamide hydrochloride]"
3,< 1 µM,N#Cc1ccc(Oc2cc(Cl)cc(Cl)c2)c(S(=O)(=O)NCCN)c1 [Example 13-8]
4,< 1 µM,O=C(O)c1ccc(Oc2cc(Cl)cc(Cl)c2)c(S(=O)(=O)N2CCNCC2)c1 [Example 14-3]
5,1 to 10 µM,N#Cc1cc(S(=O)(=O)N2CCNCC2)c(Oc2cc(Cl)cc(Cl)c2)cc1Cl [Example 12-3]
6,< 1 µM,"COC(=O)c1ccc(Oc2cc(C)cc(C)c2)c(S(=O)(=O)N2CCNCC2)c1 [Example 15-2, methyl 4-(3,5-dimethylphenoxy)-3-(1-piperazinylsulfonyl)benzoate hydrochloride]"
7,< 1 µM,"Cc1cc(C)cc(Oc2cc([N+](=O)[O-])ccc2S(=O)(=O)N2CCNCC2)c1 [Example 23-1, 1-{2-(3,5-dimethylphenoxy)-4-nitrophenylsulfonyl}piperazine hydrochloride]"
8,< 1 µM,O=[N+]([O-])c1ccc(Nc2cccc(F)c2)c(S(=O)(=O)N2CCNCC2)c1 [Example 3-10]
9,< 1 µM,CN(C)CC(C)(C)CNS(=O)(=O)c1cc([N+](=O)[O-])ccc1Sc1cc(Cl)cc(Cl)c1 [Example 2-4]
10,< 1 µM,CN(C)CCCCNS(=O)(=O)c1cc([N+](=O)[O-])ccc1Oc1cc(Cl)cc(Cl)c1 [Example 4-39]
11,1 to 10 µM,O=[N+]([O-])c1ccc(Sc2ccccc2)c(S(=O)(=O)N2CCNCC2)c1 [Example 2-14]
12,1 to 10 µM,NC(=O)c1cc(F)c(Oc2cc(Cl)cc(Cl)c2)c(S(=O)(=O)N2CCNCC2)c1 [Example 15-4]
13,1 to 10 µM,Cc1cc(C)cc(Oc2cc(Cl)c(C#N)cc2S(=O)(=O)N2CCNCC2)c1 [Example 12-2]
14,< 1 µM,NCCNS(=O)(=O)c1cc([N+](=O)[O-])ccc1Oc1cc(Cl)cc(Cl)c1 [Example 1-95]
15,< 1 µM,"Cc1cc(C)cc(Oc2cc(Br)cc(S(=O)(=O)N3CCNCC3)c2)c1 [Example 24-1, 1-{[3-bromo-5-(3,5-dimethylphenoxy)phenyl]sulfonyl}piperazine hydrochloride]"
16,< 1 µM,Cc1cccc(Oc2ccc([N+](=O)[O-])cc2S(=O)(=O)N2CCNCC2)c1 [Example 1-24]
17,< 1 µM,O=[N+]([O-])c1ccc(Nc2ccc(Cl)cc2)c(S(=O)(=O)N2CCNCC2)c1 [Example 3-8]
18,< 1 µM,"Cc1cc(C)cc(Oc2ccc(-c3nnn[nH]3)cc2S(=O)(=O)N2CCNCC2)c1 [Example 22-4, 1-{[2-(3,5-dimethylphenoxy)-5-(1H-tetraazol-5-yl)phenyl]sulfonyl}piperazine hydrochloride]"
